{"source": "patent US7250397B2", "about": "“Antiarrhythmic peptides” (Zealand Pharma A/S, priority 2000, dated 2007)", "key": {"[1]": {"test_system": "ventricular reentry arrhythmias", "assay": "Ventricular reentry arrhythmias in dogs after coronary artery occlusion", "format": "in vivo, dog", "conditions": "i.v. bolus and infusion after CAO; from the lowest dose", "experimental": "Three dogs were studied in the anesthetized, open chest state to facilitate electrode placement for mapping. α-chloralose was given as a bolus (200 mg/kg) and then a constant infusion at 8 mg/kg/hr (dissolved in polyethylene glycol, MW=200). The femoral vein and artery was cannulated for administration of fluid and drugs and for measurement of ascending aortic pressure, respectively.\nThe sinus node was clamped and the atrial appendage was paced with a programmable stimulator with constant current outputs at two times diastolic threshold. Pacing rate was ≧200 b/min to control heart rates. […] Endocardial Effective Refractory Period (ERP) was measured by the standard extrastimulus technique. Late ventricular diastolic threshold was measured during each intervention; the pacing current was four times threshold.\nTest sites were chosen along the shaft of 16 pole needles (J. Kassell, Fayetteville, N.C.); each pole completely surrounds the needle shaft to prevent directionality of needle orientation from recording of adjacent Purkinje strands. Six bipolar electrograms (1 mm spacing) were recorded sequentially down the shaft of the needle by amplifying up to 1000 times, filtering from 3-1300 Hz and recording via oscilloscope during atrial pacing. Four intramural electrograms are recorded on each multipolar needle. […]"}, "ROS 17/2.8 cells": {"test_system": "ROS 17/2.8 cells", "assay": "Lucifer Yellow dye transfer in ROS 17/2.8 cells", "format": "cell-based, rat", "conditions": "after 48 hours in 3-6% O2 (9 cells before)", "experimental": "ROS 17/2.8 cells: Cells were cultured in 100 mm dishes at 37° C. with 5% CO2 and medium change every 2-3 days. ROS medium (all reagents obtained from Life Technologies) MEM (Cat.No. 31095) supplemented with 10% heat-inactivated calf serum (Cat.No. 16170), 1% NEAA (Cat.No. 11140), 1% Sodium Pyruvate (Cat.No. 11360), 1% L-Glutamine (Cat.No. 25030) and 0.1% Penicillin/Streptomycin (Cat.No. 15140). For video imaging experiments, cells were plated on coverslips at 2-3×10^5 cells/coverslip and cultured for 2-3 days before use.\nThe cells cultured on coverslips were placed in the microscope as described above. Microinjections were performed using the Eppendorf 5171 micromanipulator and the Eppendorf Transjector 5346 system. A micropipette was loaded with a 10 mM Lucifer Yellow (LY) solution (Sigma, Cat.No. L-0259). […] The excitation light for LY was 430 nm, and images were acquired as described above.\nSimilar experiments were performed with ROS cells. Basic coupling under physiological conditions in ROS cells was 12 cells (n=19). After 48 hours incubation in 3-6% O2, a reduction in dye transfer was seen to 9 cells (n=27)."}}, "note": "“Also recorded” adds a separate entry of the source."}
{"substance": "Ac-D-Tyr-D-Pro-D-4Hyp-Gly-D-Ala-Gly-NH2 [Compound 2]", "values": [{"measurement": "inducibility of reentry ventricular tachycardia (VT)", "setting": "[1]", "result": "no longer inducible; also recorded: completely blocked; also recorded: No VT was inducible"}, {"measurement": "average dye transfer, number of cells", "setting": "ROS 17/2.8 cells", "result": 12, "unit": "cells"}]}
